Source: patent US8506950B2, “Degradable microcapsules” (ETH Zurich, priority 2008, dated 2013)

Key:
rLHR [1] = target: T1, rLHR (Rattus norvegicus, UniProt P16235); assay: PCRE dependent SEAP expression over time in HEK293T expressing rLHR or bLHR; assay type: cell-based; parameters: Full-length cDNAs encoding the LHRs of rat (r) and bovine (b) origin; expressed in transfected cells; host or cells: HEK293T, transient transfection with pLEN-rLHR; details: 500 ng/mL bLH, maximal SEAP expression
Method: HEK293T cells were transiently co-transfected for PCRE dependent SEAP expression and constitutive bLHR- or rLHR expression or with the empty vector pcDNA3.1(+). 24 hours post-transfection the cells were induced by addition of 500 ng/mL bLH or cultivated non-induced. […] (▴) rLHR+bLH; (▪) bLHR+bLH; (×) rLHR-bLH; (♦) bLHR-bLH;
Functional expression of LHRs on the cell surface results in the stimulation of PKA and an increase of intracellular cAMP in response to bLH. It was evaluated whether the activated LHR-signaling may induce a PKA-responsive promoter. […] 24 hours post-transfection the cells were induced by bLH and the SEAP expression was determined over time. […] In comparing rLHR- and bLHR-expressing cells a 3-fold increase in maximal SEAP expression in response to bLH of the rLHR over the bLHR was detected. […]
The intracellular cAMP production of cells was quantified using the cAMP Fluorescence Polarization (FP) Biotrak Immunoassay System (GE Healthcare Bio-Sciences GmbH, Otelfingen, Switzerland, Cat No. RPN3595) according to the manufacturer's protocol. The expression of firefly luciferase was determined with the Tropix Luciferase Assay Kit (Applied Biosystems, Bedford, USA, Cat No. BC100L). […] Enhanced YFP-expression was detected by fluorescence microscopy (Leica Microsystems, Wetzlar, Germany)

rLHR [2] = target: T1, rLHR; assay: bLH-dependent disruption of CS/pDADMAC microcapsules containing CK04 cells transfected with pCK71; assay type: cell-based; parameters: Full-length cDNAs encoding the LHRs of rat (r) and bovine (b) origin; expressed in transfected cells; host or cells: CK04: HEK293T stably cotransfected with pLEN-rLHR and pZeoSV2(+), clone 6; details: 500 ng/ml bLH, 24 hours post-induction
Method: (A) Phase-contrast photomicrographs of CS/pDADMAC encapsulated CK04 cells transiently transfected for PCRE controlled cellulase expression (pCK71, PCRE-cellulase-pA). The microcapsules were cultured in the absence or presence of 500 ng/ml bLH. In the presence of bLH the capsules were disrupted by the induced expression of cellulase whereas the non-induced capsules remained intact. Arrows indicate the disrupted capsules.
(B) Quantification of microcapsule disruption. Per sample approximately 150 capsules were counted and the amount of capsule disruption was calculated. 24 hours post-induction 98% of the capsules were disrupted by the induced cellulase. […]
Cells were encapsulated using the Inotech Encapsulator Research Unit IE-50R (Inotech Biotechnologies Ltd, Basel, Switzerland). […] The cells were counted using a Casy Counter (Scharfe Systems, Reutlingen, Germany) and 1×10^6 cells were resuspended in sodium […] sulfate solution (2% (w/v) in PBS, CS, Euroferm, Erlangen, Germany, Batch-No: FCY-06A) and aseptically encapsulated according to the standard protocol using the following settings: 0.2 mm nozzle with a nozzle vibration frequency of 1250 Hz, 20 ml syringe at a flow rate of 410 units, voltage for bead dispersion 1.15 kV. […]

T1 sequence (P16235 27-700): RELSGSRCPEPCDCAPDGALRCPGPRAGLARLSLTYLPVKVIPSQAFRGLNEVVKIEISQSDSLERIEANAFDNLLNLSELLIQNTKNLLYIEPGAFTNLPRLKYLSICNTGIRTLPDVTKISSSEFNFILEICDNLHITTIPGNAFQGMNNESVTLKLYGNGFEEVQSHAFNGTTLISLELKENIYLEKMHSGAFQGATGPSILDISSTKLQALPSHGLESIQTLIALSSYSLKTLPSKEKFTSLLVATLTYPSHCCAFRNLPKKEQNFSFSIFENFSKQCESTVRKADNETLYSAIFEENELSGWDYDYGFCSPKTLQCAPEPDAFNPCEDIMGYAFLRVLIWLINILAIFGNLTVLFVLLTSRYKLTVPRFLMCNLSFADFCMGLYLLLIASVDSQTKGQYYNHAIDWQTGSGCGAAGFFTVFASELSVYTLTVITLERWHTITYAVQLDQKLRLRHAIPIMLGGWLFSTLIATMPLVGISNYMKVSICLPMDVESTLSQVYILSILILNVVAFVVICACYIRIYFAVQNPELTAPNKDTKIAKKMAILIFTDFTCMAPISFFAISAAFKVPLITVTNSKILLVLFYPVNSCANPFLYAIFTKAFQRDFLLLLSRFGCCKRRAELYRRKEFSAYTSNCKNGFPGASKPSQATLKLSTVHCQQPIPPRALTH

SEAP production of rLHR-expressing cells relative to bLHR-expressing cells (rLHR [1]): 3 fold | disrupted capsules (rLHR [2]): 98%
Substance: bovine luteinizing hormone [bLH]
